According to PubChem BioAssay AID1259407 (Chemical Carcinogenesis Research Information System (CCRIS), 2018):
Active and inactive are the calls of the source. No rule for the calls is given here.

Tested on: CCRIS mutagenicity, Ames/micronucleus/aberration tests
Experiment: CCRIS mutagenicity studies

With `COC(=O)Nc1nc2ccccc2[nH]1` the mutagenic call (End Point: IN VITRO CHROMOSOMAL ABERRATIONS, Test System: HUMAN PERIPHERAL LYMPHOCYTES, Metabolic Activation: RAT, LIVER, S-9, AROCLOR 1254) was “inactive; negative”, the mutagenic call (End Point: IN VITRO MICRONUCLEUS, Test System: HUMAN PERIPHERAL LYMPHOCYTES, Metabolic Activation: NONE) was “active; positive” and the mutagenic call (End Point: IN VITRO MICRONUCLEUS, Test System: V79 CELLS, Metabolic Activation: NONE) was “active; positive”. The mutagenic call (End Point: In vitro micronucleus, Test System: Mouse lymphoma L5178Y cells, Metabolic Activation: None) was “active; positive”, the mutagenic call (End Point: In vivo micronucleus, Test System: Micronucleated, binucleated and multinucleated hepatocytes, Species: Mouse, Strain/Sex: ddY/Male, Route: Oral) was “active; positive for micronucleated, binucleated and multinucleated cells when agent adm” and the mutagenic call (Test System: AMES SALMONELLA TYPHIMURIUM, Strain/Indicator: TA97, Metabolic Activation: NONE, Method: PREINCUBATION) was “inactive; negative”. The mutagenic call (Test System: AMES SALMONELLA TYPHIMURIUM, Strain/Indicator: TA97, Metabolic Activation: NONE, Method: STANDARD PLATE) was “inactive; negative”, the mutagenic call (Test System: AMES SALMONELLA TYPHIMURIUM, Strain/Indicator: TA97, Metabolic Activation: RAT, LIVER, S-9, PHENOBARBITAL AND BETA-NAPHTHOFLAVONE, Method: PREINCUBATION) was “active; positive” and the mutagenic call (Test System: AMES SALMONELLA TYPHIMURIUM, Strain/Indicator: TA97, Metabolic Activation: RAT, LIVER, S-9, PHENOBARBITAL AND BETA-NAPHTHOFLAVONE, Method: STANDARD PLATE) was “inactive; negative”. The mutagenic call (Test System: AMES SALMONELLA TYPHIMURIUM, Strain/Indicator: TA97A, Metabolic Activation: NONE, Method: STANDARD PLATE) was “inactive; negative”, the mutagenic call (Test System: AMES SALMONELLA TYPHIMURIUM, Strain/Indicator: TA97A, Metabolic Activation: PLANT, HOMOGENATE, S-14, Method: STANDARD PLATE) was “inactive; negative” and the mutagenic call (Test System: AMES SALMONELLA TYPHIMURIUM, Strain/Indicator: TA97A, Metabolic Activation: S-9, Method: STANDARD PLATE) was “inactive; negative”. The mutagenic call (Test System: AMES SALMONELLA TYPHIMURIUM, Strain/Indicator: TA98, Metabolic Activation: HAMSTER, LIVER, S-9, AROCLOR 1254 (10%), Method: PREINCUBATION) was “active; positive”, the mutagenic call (Test System: AMES SALMONELLA TYPHIMURIUM, Strain/Indicator: TA98, Metabolic Activation: NONE, Method: PREINCUBATION) was “inactive; negative” and the mutagenic call (Test System: AMES SALMONELLA TYPHIMURIUM, Strain/Indicator: TA98, Metabolic Activation: PLANT, HOMOGENATE, S-14, Method: STANDARD PLATE) was “inactive; negative”. For the same compound, the mutagenic call (Test System: AMES SALMONELLA TYPHIMURIUM, Strain/Indicator: TA98, Metabolic Activation: RAT, LIVER, S-9, AROCLOR 1254 (10%), Method: PREINCUBATION) was “active; positive”, the mutagenic call (Test System: AMES SALMONELLA TYPHIMURIUM, Strain/Indicator: TA98, Metabolic Activation: RAT, LIVER, S-9, PHENOBARBITAL AND BETA-NAPHTHOFLAVONE, Method: PREINCUBATION) was “active; positive” and the mutagenic call (Test System: AMES SALMONELLA TYPHIMURIUM, Strain/Indicator: TA98, Metabolic Activation: RAT, LIVER, S-9, PHENOBARBITAL AND BETA-NAPHTHOFLAVONE, Method: STANDARD PLATE) was “active; positive”. The mutagenic call (Test System: AMES SALMONELLA TYPHIMURIUM, Strain/Indicator: TA98, Metabolic Activation: RAT, LIVER, S-9, PHENOBARBITONE, Method: PREINCUBATION) was “inactive; negative”, the mutagenic call (Test System: AMES SALMONELLA TYPHIMURIUM, Strain/Indicator: TA98, Metabolic Activation: S-9, Method: STANDARD PLATE) was “inactive; negative” and the mutagenic call (Test System: AMES SALMONELLA TYPHIMURIUM, Strain/Indicator: TA100, Metabolic Activation: HAMSTER, LIVER, S-9, AROCLOR 1254 (10%), Method: PREINCUBATION) was “inactive; negative”. The mutagenic call (Test System: AMES SALMONELLA TYPHIMURIUM, Strain/Indicator: TA100, Metabolic Activation: NONE, Method: PREINCUBATION) was “inactive; negative”, the mutagenic call (Test System: AMES SALMONELLA TYPHIMURIUM, Strain/Indicator: TA100, Metabolic Activation: PLANT, HOMOGENATE, S-14, Method: STANDARD PLATE) was “inactive; negative” and the mutagenic call (Test System: AMES SALMONELLA TYPHIMURIUM, Strain/Indicator: TA100, Metabolic Activation: RAT, LIVER, S-9, AROCLOR 1254 (10%), Method: PREINCUBATION) was “inactive; negative”. The mutagenic call (Test System: AMES SALMONELLA TYPHIMURIUM, Strain/Indicator: TA100, Metabolic Activation: RAT, LIVER, S-9, AROCLOR 1254, Method: STANDARD PLATE) was “inactive; negative” and the mutagenic call (Test System: AMES SALMONELLA TYPHIMURIUM, Strain/Indicator: TA100, Metabolic Activation: RAT, LIVER, S-9, PHENOBARBITAL AND BETA-NAPHTHOFLAVONE, Method: PREINCUBATION) was “inactive; negative”.
